# Measured values reported in patent US11180474B2 (BRISTOL-MYERS SQUIBB COMPANY, priority 2016, dated 2021).
# Biological target: T1, human TLR7 (Homo sapiens, UniProt Q9NYK1)
# T1 construct: host or cells: HEK-Blue cells
# T1 sequence (Q9NYK1 27-1049): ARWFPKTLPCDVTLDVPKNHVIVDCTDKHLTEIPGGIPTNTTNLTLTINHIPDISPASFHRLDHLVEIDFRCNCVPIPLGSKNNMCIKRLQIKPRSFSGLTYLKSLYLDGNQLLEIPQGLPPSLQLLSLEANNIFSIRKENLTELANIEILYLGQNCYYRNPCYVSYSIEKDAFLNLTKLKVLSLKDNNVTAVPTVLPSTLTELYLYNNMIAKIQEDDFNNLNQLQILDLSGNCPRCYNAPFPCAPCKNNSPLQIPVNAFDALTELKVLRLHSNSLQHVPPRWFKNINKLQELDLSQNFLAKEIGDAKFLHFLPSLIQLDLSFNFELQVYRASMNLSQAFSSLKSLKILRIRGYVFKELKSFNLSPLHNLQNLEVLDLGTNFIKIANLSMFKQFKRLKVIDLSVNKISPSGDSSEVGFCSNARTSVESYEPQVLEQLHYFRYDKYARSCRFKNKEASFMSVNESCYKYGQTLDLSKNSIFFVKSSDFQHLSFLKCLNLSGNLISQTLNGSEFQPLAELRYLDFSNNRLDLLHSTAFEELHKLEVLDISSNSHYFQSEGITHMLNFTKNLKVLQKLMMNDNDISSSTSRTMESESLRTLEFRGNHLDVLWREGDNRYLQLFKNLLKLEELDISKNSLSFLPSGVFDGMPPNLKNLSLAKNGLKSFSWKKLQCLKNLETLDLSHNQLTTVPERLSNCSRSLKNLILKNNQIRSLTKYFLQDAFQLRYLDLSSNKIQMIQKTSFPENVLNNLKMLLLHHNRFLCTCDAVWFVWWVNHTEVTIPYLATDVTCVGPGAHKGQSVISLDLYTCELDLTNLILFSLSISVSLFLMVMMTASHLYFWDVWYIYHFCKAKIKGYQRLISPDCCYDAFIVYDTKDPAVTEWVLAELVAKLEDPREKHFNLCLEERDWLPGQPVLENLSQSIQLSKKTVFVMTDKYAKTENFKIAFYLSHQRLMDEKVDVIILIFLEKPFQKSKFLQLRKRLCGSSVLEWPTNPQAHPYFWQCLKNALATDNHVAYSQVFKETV
# Assay: TLR7 inhibition reporter assay (HEK-Blue cells, SEAP reporter, gardiquimod stimulation)
# Type: cell-based
# Details: HEK-Blue cells overexpressing human TLR7, gardiquimod 7.5 μM
# Summary of the method: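 Dose-response testing from 0.05 nM to 50 μM final was done on reporter cells for 22 hours at 37° C. Secreted SEAP was then detected, and inhibition was calculated as percent reduction of the agonist-plus-DMSO signal compared with wells given a known inhibitor.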
row,IC50,Compound
1,931 nM,"CCN1CCCC(N2CCC(c3ccc4[nH]c(-c5ccc(OC)c(OC)c5)c(C)c4c3)CC2)CC1 (stereo not shown) [Example 97, 2-(3,4-dimethoxyphenyl)-5-(1-(1-ethylazepan-4-yl)piperidin-4-yl)-3-methyl-1H-indole]"
2,66 nM,"CCN(CC)C(=O)C1CCCN(CC(=O)N2CCC(c3ccc4[nH]c(-c5ccc(OC)c(OC)c5)c(CC(F)(F)F)c4c3)CC2)C1 (stereo not shown) [Example 420, 1-(2-(4-(2-(3,4-dimethoxyphenyl)-3-(2,2,2-trifluoroethyl)-1H-indol-5-yl)piperidin-1-yl)-2-oxoethyl)-N,N-diethylpiperidine-3-carboxamide]"
3,1090 nM,"COc1ccc(-c2[nH]c3ccc(C4CCN(C5CCN(CCC(F)(F)F)CC5)CC4)cc3c2C)cc1OC [Example 50, 2-(3,4-dimethoxyphenyl)-3-methyl-5-(1′-(3,3,3-trifluoropropyl)-[1,4′-bipiperidin]-4-yl)-1H-indole]"
4,114 nM,"CCN(CC)C(=O)C1CCCN(CC(=O)N2CCC(c3ccc4[nH]c(-c5ccc(OC)c(OC)c5)c(CC(F)(F)F)c4c3)CC2)C1 (stereo not shown) [Example 421, 1-(2-(4-(2-(3,4-dimethoxyphenyl)-3-(2,2,2-trifluoroethyl)-1H-indol-5-yl)piperidin-1-yl)-2-oxoethyl)-N,N-diethylpiperidine-3-carboxamide]"
5,898 nM,"COc1ccc(-c2[nH]c3ccc(C4CCN(C(=O)CN(C)CCO)CC4)cc3c2C)cc1OC [Example 408, 1-(4-(2-(3,4-dimethoxyphenyl)-3-methyl-1H-indol-5-yl)piperidin-1-yl)-2-((2-hydroxyethyl)(methyl)amino)ethan-1-one]"
6,83 nM,"CNCCN1CCC(c2ccc3[nH]c(-c4ccc(OC)c(OC)c4)c(CC(F)(F)F)c3c2)CC1 [Example 413, 2-(4-(2-(3,4-dimethoxyphenyl)-3-(2,2,2-trifluoroethyl)-1H-indol-5-yl)piperidin-1-yl)-N-methylethanamine]"
7,477 nM,"COc1ccc(-c2[nH]c3ccc(C4CCN(C5CCN(Cc6cncn6C)CC5)CC4)cc3c2C)cc1OC [Example 59, 2-(3,4-dimethoxyphenyl)-3-methyl-5-(1′-((1-methyl-1H-imidazol-5-yl)methyl)-[1,4′-bipiperidin]-4-yl)-1H-indole]"
8,288 nM,"COc1ccc(-c2[nH]c3ccc(C4CCN(C5CCN(C6CCCCC6)CC5)CC4)cc3c2C)cc1OC [Example 68, 5-(1′-cyclohexyl-[1,4′-bipiperidin]-4-yl)-2-(3,4-dimethoxyphenyl)-3-methyl-1H-indole]"
9,734 nM,"COc1ccc(-c2[nH]c3ccc(C4CCN(C5CCN(CC(C)(C)C)CC5)CC4)cc3c2C)cc1OC [Example 75, 2-(3,4-dimethoxyphenyl)-3-methyl-5-(1′-neopentyl-[1,4′-bipiperidin]-4-yl)-1H-indole]"
10,163 nM,"COc1ccc(-c2[nH]c3ccc(C4CCN(C5CCN(Cc6cccs6)CC5)CC4)cc3c2C)cc1OC [Example 64, 2-(3,4-dimethoxyphenyl)-3-methyl-5-(1′-(thiophen-2-ylmethyl)-[1,4′-bipiperidin]-4-yl)-1H-indole]"
11,19 nM,"COc1ccc(-c2[nH]c3ccc(C4CCN(C5CCN(C(C)C)CC5)CC4)cc3c2CC(F)(F)F)cc1OC [Example 412, 2-(3,4-dimethoxyphenyl)-5-(1′-isopropyl-[1,4′-bipiperidin]-4-yl)-3-(2,2,2-trifluoroethyl)-1H-indole]"
12,819 nM,"COc1ccc(-c2[nH]c3ccc(C4CCN(C5CCCN(CC(C)C)CC5)CC4)cc3c2C)cc1OC (stereo not shown) [Example 95, 2-(3,4-dimethoxyphenyl)-5-(1-(1-isobutylazepan-4-yl)piperidin-4-yl)-3-methyl-1H-indole]"
13,225 nM,"COc1ccc(-c2[nH]c3ccc(C4CCN(C5CCN(C6CCCC6)CC5)CC4)cc3c2C)cc1OC [Example 62, 5-(1′-cyclopentyl-[1,4′-bipiperidin]-4-yl)-2-(3,4-dimethoxyphenyl)-3-methyl-1H-indole]"
